Tests used:
Test in all cases: greenhouse herbicidal test, post-emergence treatment
Assay type in all cases: in vivo
[1] = system: Chenopodium album; conditions: 0.5 or 0.25 kg/ha a.s., Chenopodium album (lambsquarters)
Description: (§1) The culture containers used were plastic flowerpots containing loamy sand with approximately 3.0% of humus as substrate. The seeds of the test plants were sown separately for each species.
(§2) For the purposes of post-emergence treatment, the test plants were grown to a plant height of from 3 to 15 cm, depending on the plant habit, and only then treated with the active ingredients which had been suspended or emulsified in water. To this end, the test plants were either sown directly and grown in the same containers, or they were first grown separately as seedlings and transplanted into the test containers a few days prior to treatment. The rate of application for the post-emergence treatment was 0.5 or 0.25 kg/ha a.s.
(§3) Depending on the species, the plants were kept at from 10-25° C. and 20-35° C., respectively. The test period extended over 2 to 4 weeks. During this time, the plants were tended, and their response to the individual treatments was evaluated.
(§4) Evaluation was carried out using a scale of from 0 to 100. 100 means no emergence of the plants, or complete destruction of at least the aerial parts, and 0 means no damage or normal course of growth.
(§5) The plants used in the greenhouse experiments belonged to the following species: […]

[2] = system: Sinapis alba; conditions: 0.5 or 0.25 kg/ha a.s., Sinapis alba (white mustard)
Description: as §1, §2, §3, §4, §5

[3] = system: Solanum nigrum; conditions: 0.5 or 0.25 kg/ha a.s., Solanum nigrum (black nightshade)
Description: as §1, §2, §3, §4, §5

[4] = system: Polygonum persicaria; conditions: 0.5 or 0.25 kg/ha a.s., Polygonum persicaria (ladysthumb)
Description: as §1, §2, §3, §4, §5

Measured: herbicidal action (control of the weed)

CC=Cc1c(Cl)ccc(C(=O)C2C(=O)CCCC2=O)c1Cl [Compound 2.1, 2-[2′,4′-Dichloro-3′-(prop-1″-en-1″-yl)benzoyl]-1,3-cyclo-hexanedione]
very good control: all assays above
